Results on 9 compounds are retold here after patent publication US9518018B2, “3-alkoxy, thioalkyl and amino-4-amino-6-(substituted)picolinates and their use as herbicides” (Dow AgroSciences LLC, priority 2011, dated 2016).

Holding throughout (experiment): Post-Emergent Test I herbicidal activity
Holding throughout (assay type): in vivo

The subject of assay [1] is ABUTH: velvetleaf (Abutilon theophrasti). Particulars: Abutilon theophrasti, post-emergence, 336 h, read-out: Visual Growth Reduction (%)-14 Days after Application ABUTH; for pest or weed control at 140 g/ha: Table 3, 140 g ai/ha; for pest or weed control at 70 g/ha: Table 3, 70 g ai/ha. How it is done: (§1) Seeds or nutlets of the desired test plant species were planted in Sun Gro Metro-Mix® 360 planting mixture, which typically has a pH of 6.0 to 6.8 and an organic matter content of about 30 percent, in plastic pots with a surface area of 64 square centimeters. When required to ensure good germination and healthy plants, a fungicide treatment and/or other chemical or physical treatment was applied. The plants were grown for 7-21 d in a greenhouse with an approximate 15 h photoperiod which was maintained at about 23-29° C. during the day and 22-28° C. during the night. Nutrients and water were added on a regular basis and supplemental lighting was provided with overhead metal halide 1000-Watt lamps as necessary. The plants were employed for testing when they reached the first or second true leaf stage.
(§2) A weighed amount, determined by the highest rate to be tested, of each test compound was placed in a 25 mL glass vial and was dissolved in 4 mL of a 97:3 v/v mixture of acetone and DMSO to obtain concentrated stock solutions. […] The concentrated stock solutions obtained were diluted with 20 mL of an aqueous mixture containing acetone, water, isopropyl alcohol, DMSO, Atplus 411F crop oil concentrate, and Triton® X-155 surfactant in a 48.5:39:10:1.5:1.0:0.02 v/v ratio to obtain spray solutions containing the highest application rates. Additional application rates were obtained by serial dilution of 12 mL of the high rate solution into a solution containing 2 mL of 97:3 v/v mixture of acetone and DMSO and 10 mL of an aqueous mixture containing acetone, water, isopropyl alcohol, DMSO, Atplus 411F crop oil concentrate, and Triton X-155 surfactant in a 48.5:39:10:1.5:1.0:0.02 v/v ratio to obtain ½×, ¼×, ⅛× and 1/16× rates of the high rate. Compound requirements are based upon a 12 mL application volume at a rate of 187 liters per hectare (L/ha). Formulated compounds were applied to the plant material with an overhead Mandel track sprayer equipped with 8002E nozzles calibrated to deliver 187 L/ha over an application area of 0.503 square meters at a spray height of 18 inches (43 cm) above the average plant canopy height. Control plants were sprayed in the same manner with the solvent blank.
(§3) The treated plants and control plants were placed in a greenhouse as described above and watered by subirrigation to prevent wash-off of the test compounds. After 14 d, the condition of the test plants as compared with that of the untreated plants was determined visually and scored on a scale of 0 to 100 percent where 0 corresponds to no injury and 100 corresponds to complete kill.
(§4) By applying the well-accepted probit analysis as described by J. Berkson in Journal of the […], 48, 565 (1953) and by D. Finney in “Probit Analysis” Cambridge University Press (1952), the above data can be used to calculate GR20, GR50 and GR80 values, which are defined as growth reduction factors that correspond to the effective dose of herbicide required to kill or control 20 percent, 50 percent or 80 percent, respectively, of a target plant.

Assay [2] concerns CHEAL: lambsquarters (Chenopodium album). The conditions noted are these: Chenopodium album, post-emergence, 336 h, read-out: Visual Growth Reduction (%)-14 Days after Application CHEAL; for pest or weed control at 140 g/ha: Table 3, 140 g ai/ha; for pest or weed control at 70 g/ha: Table 3, 70 g ai/ha. How it is done: as §1, §2, §3, §4
The subject of assay [3] is CYPES: yellow nutsedge (Cyperus esculentus). The conditions noted are these: post-emergence, 336 h, read-out: Visual Growth Reduction (%)-14 Days after Application CYPES; for pest or weed control at 140 g/ha: Table 3, 140 g ai/ha; for pest or weed control at 70 g/ha: Table 3, 70 g ai/ha. How it is done: as §1, §2, §3, §4
For assay [4], the system named is ECHCG: barnyardgrass (Echinochloa crus-galli). The conditions noted are these: post-emergence, 336 h, read-out: Visual Growth Reduction (%)-14 Days after Application ECHCG; for pest or weed control at 140 g/ha: Table 3, 140 g ai/ha; for pest or weed control at 70 g/ha: Table 3, 70 g ai/ha. As to the method:
as §1, §2, §3, §4

Assay [5] deals with EPHHL: wild poinsettia (Euphorbia heterophylla). The conditions noted are these: post-emergence, 336 h, read-out: Visual Growth Reduction (%)-14 Days after Application EPHHL; for pest or weed control at 140 g/ha: Table 3, 140 g ai/ha; for pest or weed control at 70 g/ha: Table 3, 70 g ai/ha. As to the method:
as §1, §2, §3, §4

Assay [6] relates to ORYSA: rice (Oryza sativa). Particulars: post-emergence, 336 h, read-out: Visual Growth Reduction (%)-14 Days after Application ORYSA; for pest or weed control at 140 g/ha: Table 3, 140 g ai/ha; for pest or weed control at 70 g/ha: Table 3, 70 g ai/ha. How it is done:
as §1, §2, §3, §4

Assay [7] relates to ZEAMX: corn (Zea mays). Particulars: Zea mays, post-emergence, 336 h, read-out: Visual Growth Reduction (%)-14 Days after Application ZEAMX; for pest or weed control at 140 g/ha: Table 3, 140 g ai/ha; for pest or weed control at 70 g/ha: Table 3, 70 g ai/ha. How it is done:
as §1, §2, §3, §4

As for `COC(=O)c1nc(-c2ccc(Cl)cc2)cc(N)c1OC` [Compound 7, methyl 4-amino-6-(4-chlorophenyl)-3-methoxypicolinate], the pest or weed control at 140 g/ha in assay [1] is 90%; in assay [2] it was 100%; in assay [3], 0%; in assay [4] it was 0%; in assay [5], 95%; in assay [6], 0%. Moreover, the pest or weed control at 140 g/ha in assay [7] was determined as 0%.

Take `CCOC(=O)c1nc(-c2ccc(Cl)cc2F)cc(N)c1OCC(F)F` [Compound 68]: the pest or weed control at 180 g/ha worked out at 100% in assay [1] (Table 3, 180 g ai/ha); 90% in assay [2] (Table 3, 180 g ai/ha); 90% in assay [3] (Table 3, 180 g ai/ha); 0% in assay [4] (Table 3, 180 g ai/ha); 100% in assay [5] (Table 3, 180 g ai/ha); 0% in assay [6] (Table 3, 180 g ai/ha). For the same compound, in assay [7] (Table 3, 180 g ai/ha), the pest or weed control at 180 g/ha was 10%.

Take `COC(=O)c1nc(-c2ccc3c(c2F)OCO3)c(F)c(N)c1OC` [Compound 42]: the pest or weed control at 140 g/ha in assay [1] stood at 60%; in assay [2], 90%; in assay [3], 10%; in assay [4], 0%; in assay [5], 100%; in assay [6] it was 0%. Besides, the pest or weed control at 140 g/ha in assay [7] is 75%.

In the case of `COc1c(C(=O)O)nc(-c2ccc(Br)c(F)c2F)c(F)c1N` [Compound 54], the pest or weed control at 70 g/ha amounted to 90% in assay [1]; 90% in assay [2]; 100% in assay [3]; 90% in assay [4]; 100% in assay [5]; 5% in assay [6]. For the same compound, the pest or weed control at 70 g/ha in assay [7] came out at 85%.

For `COc1c(C(=O)O)nc(-c2ccc(I)cc2)c(F)c1N` [Compound 55], the pest or weed control at 132 g/ha in assay [1] (Table 3, 132 g ai/ha) amounted to 85%; in assay [2] (Table 3, 132 g ai/ha), 90%; in assay [3] (Table 3, 132 g ai/ha), 100%; in assay [4] (Table 3, 132 g ai/ha), 100%; in assay [5] (Table 3, 132 g ai/ha) it was 100%; in assay [6] (Table 3, 132 g ai/ha), 10%. The pest or weed control at 132 g/ha in assay [7] (Table 3, 132 g ai/ha) came to 80%.

On to `COC(=O)c1nc(-c2ccc(Br)c(F)c2F)c(F)c(N)c1OC` [Compound 19, methyl 4-amino-6-(4-bromo-2,3-difluorophenyl)-5-fluoro-3-methoxypicolinate], for which the pest or weed control at 70 g/ha in assay [1] amounted to 85%; in assay [2], 100%; in assay [3], 90%; in assay [4], 75%; in assay [5] it was 100%; in assay [6], 0%. Also, the pest or weed control at 70 g/ha in assay [7] turned out to be 70%.

Take `COC(=O)c1nc(Cl)c(F)c(N)c1OC` [Compound 10, methyl 4-amino-6-chloro-5-fluoro-3-methoxypicolinate]: the pest or weed control at 280 g/ha in assay [1] (Table 3, 280 g ai/ha) was 100%; in assay [2] (Table 3, 280 g ai/ha), 100%; in assay [3] (Table 3, 280 g ai/ha) it was 0%; in assay [4] (Table 3, 280 g ai/ha) it was 0%; in assay [5] (Table 3, 280 g ai/ha) it was 100%; in assay [6] (Table 3, 280 g ai/ha), 0%. In assay [7] (Table 3, 280 g ai/ha), the pest or weed control at 280 g/ha was determined as 25%.

Regarding `COC(=O)c1nc(C(C)F)cc(N)c1OC` (stereo not drawn) [Compound 83, methyl 4-amino-6-(1-fluoroethyl)-3-methoxypicolinate], the pest or weed control at 140 g/ha in assay [1], in assay [2], in assay [3], in assay [4], in assay [5] and in assay [6] was 0% throughout. Besides, in assay [7], the pest or weed control at 140 g/ha was determined as 0%.

`COC(=O)c1nc(-c2ccc(I)cc2F)c(F)c(N)c1OC` [Compound 26]: the pest or weed control at 140 g/ha was found to be 10% in assay [1]; 90% in assay [2]; 50% in assay [3]; 55% in assay [4]; 100% in assay [5]; 0% in assay [6]. In addition, the pest or weed control at 140 g/ha in assay [7] came out at 75%.
